We go through 1 compound from patent US12180084B2, “Cerium (III) carbonate formulations” (THE REGENTS OF THE UNIVERSITY OF CALIFORNIA, priority 2019, dated 2024).

Data set [1] in a line: CR dye photodegradation in ZnO-based sunscreen film (Neutrogena Sheer Zinc Face Mineral Sunscreen SPF 50). Conditions: 1.5 wt. % added agent relative to sunscreen weight. How it is done: Therefore, the extent of photodegradation upon UV irradiation in a photoreactor, using the same setup and ZnO-based sunscreen formulation (Neutrogena Sheer Zinc Face™ Mineral Sunscreen SPF 50) as in Examples 7.1 and 7.2 above, except now using Congo Red (CR) rather than MB dye was investigated. For this investigation, a homogeneous composite mixture was prepared by mixing the ZnO-based (Neutrogena Sheer Zinc Face™ Mineral Sunscreen SPF 50) sunscreen, and CR dye in the similar way as described in Example 7.1 for MB, except now using 10^−3 M CR dye (0.6 mL) instead of 10^−3 M MB dye (0.6 mL). Similarly, a composite sunscreen mixture comprising UV-protecting agent was prepared with synthesized Ce2(CO3)3·6H2O (1.5 wt. % relative to sunscreen weight), following the procedure of Example 7.2. The investigation of CR dye photodegradation in sunscreen films, was also conducted in similar fashion as described in Examples 7.1 for the case of no added UV-protecting agent and 7.2 for the case of added Ce2(CO3)3·6H2O UV-protecting agent, except for the following changes. First, the CR sunscreen films were salmon colored on the same filter paper, and the duration of UV-irradiation in the photoreactor was 5 h instead of 4 h. Second, 2 mL of N,N-dimethylformamide was used for CR dye extraction, instead of 2 mL of ethanol as used for MB dye extraction. […]

Data set [2] can be described thus: MB dye photodegradation in ZnO-based sunscreen film (Neutrogena Sheer Zinc Face Mineral Sunscreen SPF 50). How it is done: A commercial ZnO-based sunscreen (Neutrogena Sheer Zinc Face™ Mineral Sunscreen SPF 50 consisting of 21.6% of ZnO solid as the only listed active ingredient) was mixed with Methylene Blue (MB) organic dye as follows. In a plastic cup, (10 g capacity; obtained from Flacktek Inc. USA), sunscreen (3 g; Neutrogena Sheer Zinc Face™ Mineral Sunscreen SPF 50) and an aqueous solution of 10^−3 M MB dye (0.6 mL) was mixed with a spatula for 3 minutes. Immediately afterwards, the mixture was high sheared in a Flactek high-speed mixer at 3500 rpm for 3 min. […] These wet drawn down coupons were treated with UV radiation in a photoreactor, without drying, for varying times and were subsequently directly extracted. The extraction employed ethanol solvent to remove MB dye and permit its quantification prior/post UV radiation exposure, so as to determine the extent of MB dye degradation by subtraction. Specifically, to accomplish this, two small strips (100 mg of each) were cut from the wet drawn-down coupons with a scissor/sharp blade so as to not smudge the film of applied sunscreen, and these strips were subsequently exposed to UV radiation in a photoreactor. The photoreactor was equipped with 14 UV-lamps of 254 nm wavelength and delivering a power of 145-155 lux for 4 h. The relative humidity during UV-exposure was controlled to be 100% by placing a water-filled Petri dish (200 mL capacity) in the photoreactor chamber for at least 16 h prior to start of photocatalysis experiment. […] This resulting clear ethanol solution of MB dye was used for measurement of the MB dye concentration UV-visible spectrophotometry, using the absorbance maximum at 654 nm. A control experiment was similarly performed to quantify amount of MB dye from sunscreen films which never underwent UV-radiation exposure (t=0 time point). […] The extent of dye photodegradation was determined by calculating the percentage of decrease in the absorbance intensity of dye at the wavelength of maximum absorption. […]

The nature of data set [3]: MB dye photodegradation in octacrylene-based sunscreen film (Blue Lizard Kids Australian Sunscreen SPF 30+). Conditions: 1.5 wt. % added agent. Here is the method:
Films on filter paper were fabricated and photoreactor experiments were conducted exactly the same way as described in Example 7.2, using MB dye, except UV irradiation in the photoreactor was conducted for a period of 4 h. These films contained either no UV-protecting agent, or 1.5 wt. % of Ce2(CO3)3·6H2O that was synthesized according to Example 3. The slurry formulation for film fabrication, photoexposure to UV light, and MB dye extraction in ethanol were performed similar to Example 7.2, except Blue Lizard® Kids Australian Sunscreen SPF 30+ was used.
A 30 nm blue-shift of the wavelength of the absorbance maximum was observed (from 654 nm initially to 624 nm after 4 h of UV irradiation in the photoreactor). The degree of photodegradation was calculated by UV-visible spectrophotometry, by assuming the same extinction coefficient at 654 nm before UV irradiation and 624 nm after 4 h of UV irradiation in the photoreactor. Data in FIG. 25A corresponds to 64% MB dye photodegradation.

With `O.O.O.O.O.O.O=C([O-])[O-].O=C([O-])[O-].O=C([O-])[O-].[Ce+3].[Ce+3]` [Ce2(CO3)3·6H2O], the “% of CR dye photodegradation after 5 h of UV irradiation in photoreactor” value in data set [1] turned out to be 9±1%; in data set [1] (listed as Ce2(CO3)3•6H2O synthesized according to Example 3), 9 ± 1%. The “% of MB dye photodegradation after 4 h of UV irradiation in photoreactor” value is on record as 36%±2 in data set [2] (0.5 wt. % added agent relative to sunscreen weight); 36 ± 2% in data set [2] (0.5 wt. % added agent relative to sunscreen weight, listed as Ce2(CO3)3•6H2O synthesized according to Example 3); 25%±2 in data set [2] (1.5 wt. % added agent relative to sunscreen weight). Moreover, in data set [3], the “MB dye degradation after 4 h of UV irradiation in photoreactor” value worked out at 45%.
